These results are taken from paper PMC11093668 (Clinical Infectious Diseases: An Official Publication of …, 2023).

The conditions of series [1]: human, in vivo.
The test system of series [2] is HIV. Set-up: method as in ref 26 = [26]; 26 Gonzalez de Requena D , Bonora S , Canta F , et al Atazanavir trough is associated with efficacy and safety: definition of therapeutic range. In: 6th Intenational Workshop on Clinical Pharmacology. The conditions noted are these: secondary target; cited from earlier work.
Series [3] relates to HIV. Set-up: method as in ref 25 = [25]; 25 Fda, Cder . Reyataz (atazanavir sulfate) capsules label. Available at: www.fda.gov/medwatch . Accessed 17 September 2019. Particulars: primary target minimum concentration; cited from earlier work.
Series [4] can be described thus: clinical. The conditions noted are these: human, in vivo, geometric mean (90% CI).
For series [5] the following is noted: atazanavir co-administration; cited from earlier work.

Each structure is given as a SMILES string. Where two headings read alike, the source gives them in different places.

For the compound `CC(C)c1nc(CN(C)C(=O)N[C@H](C(=O)N[C@@H](Cc2ccccc2)C[C@H](O)[C@H](Cc2ccccc2)NC(=O)OCc2cncs2)C(C)C)cs1` [Ritonavir, ritonavir], in series [1], the “AUC24, geometric mean (90% CI)” value is on record as 9.5 (8.4 - 11) mg·h/L; the “Clearance/F, geometric mean (90% CI)” value is on record as 11 (9.34 - 11.9 L/h; the “T1/2, geometric mean (90% CI)” value is 5.7 (5.4- 6.1) h. In addition, the “Ctau, geometric mean (90% CI)” value in series [1] (24 h) was 0.068 (0.060- 0.077) mg/L.
As to `COC(=O)N[C@H](C(=O)N[C@@H](Cc1ccccc1)[C@@H](O)CN(Cc1ccc(-c2ccccn2)cc1)NC(=O)[C@@H](NC(=O)OC)C(C)(C)C)C(C)(C)C` [Atazanavir, atazanavir], in series [2], the “minimum effective concentration (MEC)” value is 0.15 mg/L. For the same compound, the “protein-adjusted IC90 (PA-IC90)” value in series [3] was 0.014 µg/mL. In series [4], this compound had a maximum concentration (Cmax) of 4600 ng/mL. In series [1], the “AUC24, geometric mean (90% CI)” value was 40 (35–46) mg·h/L; the “Clearance/F, geometric mean (90% CI)” value was 7.5 (6.6–8.7) L/h; the “T1/2, geometric mean (90% CI)” value is 11 (10–12) h. The “Ctau, geometric mean ratio (90% CI)” value in series [1] (12 h) is recorded as 0.98 (0.81–1.2). In series [1] (24 h), the “Ctau, geometric mean (90% CI)” value was 0.59 (0.48–0.74) mg/L; the “Ctau, geometric mean ratio (90% CI)” value is reported as 0.039 (0.032– 0.048); the “lowest Ctau, fold higher than PA-IC90” value came to 12.7 fold; the “proportion of Ctau below the limit of quantification (0.03 mg/L)” value was 65%.
Turning to `C[C@@H]1CCO[C@H]2Cn3cc(C(=O)NCc4ccc(F)cc4F)c(=O)c(O)c3C(=O)N12` [Dolutegravir, dolutegravir], the “AUC24 (exposure) higher with dose escalation of ATV/r” value in series [1] was 1.6 fold. In addition, in series [1] (12 h), the “Ctau higher with dose escalation of ATV/r” value worked out at 2 folds. In addition, the “increase in dolutegravir exposure” value in series [5] was 91%.
Take `CO[C@H]1/C=C/O[C@@]2(C)Oc3c(C)c(O)c4c(O)c(c(/C=N/N5CCN(C)CC5)c(O)c4c3C2=O)NC(=O)/C(C)=C\C=C\[C@H](C)[C@H](O)[C@@H](C)[C@@H](O)[C@@H](C)[C@H](OC(C)=O)[C@@H]1C` [Rifampicin, rifampicin]: the “Ctau higher with dose escalated ATV/r” value in series [1] (24 h) turned out to be 40%.
